Test results from patent publication US9974931B2, “Pharmaceutical-coated medical products, the production thereof and the use thereof” (Invatec Technology Center Gmbh, priority 2007, dated 2018).

How the values were obtained:
[1] = Loss of the active substance during expansion in the dry state (adhesion test); assay type: physicochemical
Excerpt: The active substance can, for example, be released in the form of particles and can then become effective by dissolution in the course of a longer period of time; • Low molecular weight: Substances with a molecular weight less than 5000 Da, and preferably <2000 Da, and particularly preferred <1000 Da; • Hydrophilic/hydrophilised balloon membrane: hydrophilic membranes consisting of materials which can be wetted with water or with hydrophilic solvents; hydrophilised membranes are membranes made out nylon, for example, whose surfaces were changed by subsequent treatment into a state that can be wetted with water or other hydrophilic solvents. • Hydrophilic or hydrophilised membranes are not to be confused with membranes which are provided with an additional hydrophilic layer; • Hydrophilically-coated balloon membrane: A membrane, which contains an additionally applied layer, which can itself be wetted with water; • Open on the surface: Pharmaceuticals or additives which are not incorporated into the balloon membrane or which are not incorporated into any layers that are firmly attached to the balloon membrane. For example, they are not incorporated in any polymeric water-insoluble coatings particularly any hydrogels that may not become detached. […] The balloons are expanded when dry and shaken for 5 seconds in a glass vessel. More than 75% of the dose remains on the balloon; • Highly volatile: Solvents with a boiling point below 300° C., and preferably below 160° C., with below 100° C. being particularly preferred.
Each balloon was coated in the folded state with 3 to 4 μg/mm^2 paclitaxel and was tested for loss of the active substance during expansion in the dry state as defined under ‘Definitions’.

[2] = Coating of hydrophilic and non-hydrophilic balloon catheters with paclitaxel by immersion: paclitaxel content on balloon; assay type: physicochemical; details: 4 immersions, 30 mg paclitaxel/ml
Experimental: Coating solution: 30 mg paclitaxel/ml in acetone 89%, ethanol 9%, Ultravist®-370 (Schering AG, Berlin) 2%, by immersing it 4 times and allowing it to dry between each immersion: […]

[3] = tested on: overstretched coronary arteries in pigs; assay: Efficacy and tolerance of coated balloon catheters with stent implantation, quantitative angiography after 4 weeks; assay type: in vivo; details: pig coronary artery, n = 8; for Late lumen loss: within 4 weeks
Excerpt: The efficacy and tolerance of coated balloon catheters according to example 5 in overstretched coronary arteries in pigs
Method: Scheller B, Speck U, Abramjuk C, Bernhardt U, Böhm M, Nickenig G: Paclitaxel balloon coating—a novel method for prevention and therapy of restenosis. Circulation 2004; 110: 810-4
Stents were implanted into pigs with the help of methotrexate coated or uncoated (control) balloon catheters. After 4 weeks the extent of the constriction of the lumen in the area of the stent was measured using quantitative angiography.
The late lumen loss means the amount by which the original coronary artery lumen diameter decreases due to excessive cell growth within 4 weeks. With blood flowing through them the original coronary artery lumen diameters were 2.64 mm and 2.41 mm respectively. In the control group (no methotrexate) the late lumen loss was 1.1 mm and in the group treated with methotrexate the late lumen loss was 0.67 mm.

[4] = Coating of balloon catheters with methotrexate: content of active substance; assay type: physicochemical; details: balloons 3.5 to 19 mm; 2×16 μl coating plus additional coat with Ultravist-370 + HES + methotrexate
Experimental: 30 mg methotrexic acid+100 μl sodium bicarbonate (7.5%)+900 μl methanol (coating with 2×16 μl, corresponding to ˜4 μg/mm^2 balloon surface)
Additional coat: Ultravist®-370+hydroxyethyl starch (HES) 10% (1:1 by volume)+30 mg methotrexate/ml applied by immersing for a short time
Stents: stainless steel, balloon-expandable 3.5 to 18 mm
Content of active substance: 5.3 μg/mm^2 balloon surface

CC(=O)O[C@H]1C(=O)[C@@]2(C)[C@H]([C@H](OC(=O)c3ccccc3)[C@]3(O)C[C@H](OC(=O)[C@H](O)[C@@H](NC(=O)c4ccccc4)c4ccccc4)C(C)=C1C3(C)C)[C@]1(OC(C)=O)CO[C@@H]1C[C@@H]2O [paclitaxel]
loss of the active substance during expansion in the dry state ([1]; series 1, coating solvent Acetic acid): 4%
loss of the active substance during expansion in the dry state ([1]; series 1, coating solvent Acetone, 3 to 4 μg/mm^2, folded): 21%
loss of the active substance during expansion in the dry state ([1]; series 1, coating solvent Dimethylformamide): 24%
loss of the active substance during expansion in the dry state ([1]; series 1, coating solvent Dimethylsulfoxide): 66%
loss of the active substance during expansion in the dry state ([1]; series 1, coating solvent Dioxane): 12%
loss of the active substance during expansion in the dry state ([1]; series 1, coating solvent Isopropanol): 19%
loss of the active substance during expansion in the dry state ([1]; series 1, coating solvent Tetrahydrofuran): 4%
loss of the active substance during expansion in the dry state ([1]; series 2, Tetrahydrofuran with 10% water by volume): 3%
loss of the active substance during expansion in the dry state ([1]; series 2, Tetrahydrofuran with 20% water by volume): 16%
loss of the active substance during expansion in the dry state ([1]; series 2, Tetrahydrofuran with 37% water by volume): 37%
loss of the active substance during expansion in the dry state ([1]; series 2, coating solvent Tetrahydrofuran): 3%
μg paclitaxel/mm^2 balloon surface ([2]; hydrophilic catheter, 3.5 to 15 mm, 5 balloon catheters): 2.8 μg/mm^2
μg paclitaxel/mm^2 balloon surface ([2]; hydrophilic catheter, 3.5 to 20 mm, 8 balloon catheters): 5.6 μg/mm^2
μg paclitaxel/mm^2 balloon surface ([2]; standard catheter, 3.5 to 15 mm, 5 balloon catheters): 3.4 μg/mm^2
μg paclitaxel/mm^2 balloon surface ([2]; standard catheter, 3.5 to 20 mm, 8 balloon catheters): 5.0 μg/mm^2

CN(Cc1cnc2nc(N)nc(N)c2n1)c1ccc(C(=O)N[C@@H](CCC(=O)O)C(=O)O)cc1 [Methotrexate, methotrexate]
Minimum vessel diameter 28d ([3]; 28 d): 1.74 ± 0.41 mm
Late lumen loss [3]: 0.67 ± 0.39 mm
Late lumen loss ([3]; listed as methotrexate): 0.67 mm
Content of active substance [4]: 5.3 μg/mm^2 balloon surface
